Measured values taken from patent publication US10851098B2, “Azole amides and amines as alpha v integrin inhibitors” (BRISTOL-MYERS SQUIBB COMPANY, priority 2016, dated 2020).

What follows are compounds tested against T1, human αVβ6 (Homo sapiens, UniProt P06756+P18564) (assay: human αVβ6 HTRF binding assay). Conditions: not given.
T1 construct: purchased R & D systems 3817-AV
Protocol: (§1) All binding assays used the HTRF (homogeneous time resolved fluorescence) technology from Cisbio International, therefore all assays are described as HTRF binding assays. The assay results for the Examples are listed above together with the characterization data. The HTRF binding assays are established for the following integrins: human αVβ6, human αVβ1, human αVβ3, human αVβ5, and human αVβ8. All assays used the following assay buffer: 20 mM Tris, pH 7.4, 1 mM MgCl2, 1 mM MnCl2, 0.01% Tween 20, and 0.01% BSA. Alternatively, a SPA-based assay was used for evaluation of receptor binding.
(§2) […]

T1 sequence (P06756 31-992 limits assumed): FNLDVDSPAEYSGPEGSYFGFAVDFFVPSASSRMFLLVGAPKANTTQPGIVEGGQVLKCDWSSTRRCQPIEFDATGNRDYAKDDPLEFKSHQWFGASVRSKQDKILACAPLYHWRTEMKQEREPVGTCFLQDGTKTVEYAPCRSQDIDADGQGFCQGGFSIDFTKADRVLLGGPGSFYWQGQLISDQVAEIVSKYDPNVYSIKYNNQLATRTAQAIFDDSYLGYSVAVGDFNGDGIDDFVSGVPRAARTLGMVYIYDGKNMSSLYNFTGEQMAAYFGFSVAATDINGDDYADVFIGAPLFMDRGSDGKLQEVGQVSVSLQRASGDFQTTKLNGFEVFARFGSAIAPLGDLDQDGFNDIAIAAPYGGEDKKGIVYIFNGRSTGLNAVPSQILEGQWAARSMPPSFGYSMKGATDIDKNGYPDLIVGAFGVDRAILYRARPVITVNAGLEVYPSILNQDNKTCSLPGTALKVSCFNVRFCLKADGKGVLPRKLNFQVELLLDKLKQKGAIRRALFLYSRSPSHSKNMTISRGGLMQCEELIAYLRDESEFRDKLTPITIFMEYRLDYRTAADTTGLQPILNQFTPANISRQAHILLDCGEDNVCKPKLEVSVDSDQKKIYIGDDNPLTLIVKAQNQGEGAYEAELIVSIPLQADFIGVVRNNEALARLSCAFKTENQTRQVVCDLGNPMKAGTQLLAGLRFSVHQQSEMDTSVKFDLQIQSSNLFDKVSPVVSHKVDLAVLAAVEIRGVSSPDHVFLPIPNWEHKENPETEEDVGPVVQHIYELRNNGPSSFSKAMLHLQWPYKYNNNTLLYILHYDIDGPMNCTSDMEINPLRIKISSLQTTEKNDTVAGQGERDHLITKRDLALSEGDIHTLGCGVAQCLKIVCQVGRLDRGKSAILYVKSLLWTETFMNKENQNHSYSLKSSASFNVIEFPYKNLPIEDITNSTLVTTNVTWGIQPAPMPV
T1 sequence (P18564 22-707 limits assumed): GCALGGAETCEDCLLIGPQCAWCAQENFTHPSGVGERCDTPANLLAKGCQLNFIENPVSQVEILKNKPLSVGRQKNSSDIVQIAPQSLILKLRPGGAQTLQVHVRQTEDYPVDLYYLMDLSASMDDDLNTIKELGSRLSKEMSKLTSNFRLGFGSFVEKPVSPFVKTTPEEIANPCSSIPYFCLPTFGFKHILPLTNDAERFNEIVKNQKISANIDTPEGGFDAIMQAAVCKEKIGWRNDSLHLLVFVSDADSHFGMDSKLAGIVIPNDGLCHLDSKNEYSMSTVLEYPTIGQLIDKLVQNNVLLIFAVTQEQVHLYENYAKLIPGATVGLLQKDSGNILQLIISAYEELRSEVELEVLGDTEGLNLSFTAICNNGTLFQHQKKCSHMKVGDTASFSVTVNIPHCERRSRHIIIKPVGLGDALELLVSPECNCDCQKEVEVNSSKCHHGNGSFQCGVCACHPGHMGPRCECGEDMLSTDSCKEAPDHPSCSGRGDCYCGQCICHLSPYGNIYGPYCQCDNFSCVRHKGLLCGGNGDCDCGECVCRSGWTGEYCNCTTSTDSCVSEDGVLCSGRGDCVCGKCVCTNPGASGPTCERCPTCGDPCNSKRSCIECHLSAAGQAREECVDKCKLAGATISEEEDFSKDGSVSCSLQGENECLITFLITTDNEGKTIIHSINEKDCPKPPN

IC50 [nM]	Structure (SMILES)
1.1	O=C(N[C@@H](CNC(=O)c1cnn(CCc2ccc3c(n2)NCCC3)c1)C(=O)O)OCc1ccccc1 [Example 12, (S)-2-(((Benzyloxy)carbonyl)amino)-3-(1-(2-(5,6,7,8-tetrahydro-1,8-naphthyridin-2-yl)ethyl)-1H-pyrazole-4-carboxamido)propanoic acid]
2	Cc1cc(C)c(S(=O)(=O)N[C@H](CNC(=O)c2cn(CCc3ccc4c(n3)NCCC4)cn2)C(=O)O)c(C)c1 [Example 114]
10	CCS(=O)(=O)N[C@@H](CNC(=O)c1cnn(CCc2ccc3c(n2)NCCC3)c1)C(=O)O [Example 126]
1.5	CCCOC(=O)N[C@@H](CNC(=O)c1cnn(CCc2ccc3c(n2)NCCC3)c1)C(=O)O [Example 127]
2.5	O=C(NC[C@H](NS(=O)(=O)Cc1ccccc1C(F)(F)F)C(=O)O)c1cnn(CCc2ccc3c(n2)NCCC3)c1 [Example 128]
3	O=C(NC[C@H](NS(=O)(=O)CCC(F)(F)F)C(=O)O)c1cnn(CCc2ccc3c(n2)NCCC3)c1 [Example 129]
13	COC(=O)N[C@@H](CNC(=O)c1cnn(CCc2ccc3c(n2)NCCC3)c1)C(=O)O [Example 130]
0.9	CC(C)COC(=O)N[C@@H](CNC(=O)c1cnn(CCc2ccc3c(n2)NCCC3)c1)C(=O)O [Example 131]
2.3	CCOC(=O)N[C@@H](CNC(=O)c1cnn(CCc2ccc3c(n2)NCCC3)c1)C(=O)O [Example 132]
2.6	C=CCOC(=O)N[C@@H](CNC(=O)c1cnn(CCc2ccc3c(n2)NCCC3)c1)C(=O)O [Example 133]
0.8	CCCCCOC(=O)N[C@@H](CNC(=O)c1cnn(CCc2ccc3c(n2)NCCC3)c1)C(=O)O [Example 134]
1.4	C=CCCOC(=O)N[C@@H](CNC(=O)c1cnn(CCc2ccc3c(n2)NCCC3)c1)C(=O)O [Example 135]
2	C#CCOC(=O)N[C@@H](CNC(=O)c1cnn(CCc2ccc3c(n2)NCCC3)c1)C(=O)O [Example 136]
0.8	CC(C)(C)COC(=O)N[C@@H](CNC(=O)c1cnn(CCc2ccc3c(n2)NCCC3)c1)C(=O)O [Example 137]
4.1	CCCS(=O)(=O)N[C@@H](CNC(=O)c1cnn(CCc2ccc3c(n2)NCCC3)c1)C(=O)O [Example 138]
0.9	O=C(NC[C@H](NS(=O)(=O)CCc1cccc2ccccc12)C(=O)O)c1cnn(CCc2ccc3c(n2)NCCC3)c1 [Example 139]
6.2	O=C(NC[C@H](NS(=O)(=O)Cc1cc(Cl)cc(Cl)c1)C(=O)O)c1cnn(CCc2ccc3c(n2)NCCC3)c1 [Example 140]
3.6	O=C(NC[C@H](NS(=O)(=O)Cc1ccc(Cl)c(Cl)c1)C(=O)O)c1cnn(CCc2ccc3c(n2)NCCC3)c1 [Example 141]
8.2	O=C(NC[C@H](NS(=O)(=O)Cc1cccc(F)c1)C(=O)O)c1cnn(CCc2ccc3c(n2)NCCC3)c1 [Example 142]
11	Cc1cccc(CS(=O)(=O)N[C@@H](CNC(=O)c2cnn(CCc3ccc4c(n3)NCCC4)c2)C(=O)O)c1 [Example 143]
2.1	CCCCCS(=O)(=O)N[C@@H](CNC(=O)c1cnn(CCc2ccc3c(n2)NCCC3)c1)C(=O)O [Example 144]
3.9	CC(C)CS(=O)(=O)N[C@@H](CNC(=O)c1cnn(CCc2ccc3c(n2)NCCC3)c1)C(=O)O [Example 145]
8.6	O=C(NC[C@H](NS(=O)(=O)Cc1ccc(OC(F)(F)F)cc1)C(=O)O)c1cnn(CCc2ccc3c(n2)NCCC3)c1 [Example 146]
14	COCCS(=O)(=O)N[C@@H](CNC(=O)c1cnn(CCc2ccc3c(n2)NCCC3)c1)C(=O)O [Example 147]
8.9	CCOCCS(=O)(=O)N[C@@H](CNC(=O)c1cnn(CCc2ccc3c(n2)NCCC3)c1)C(=O)O [Example 148]
4.7	COCCOC(=O)N[C@@H](CNC(=O)c1cnn(CCc2ccc3c(n2)NCCC3)c1)C(=O)O [Example 149]
5.7	O=C(NC[C@H](NS(=O)(=O)Cc1ccc(C(F)(F)F)cc1)C(=O)O)c1cnn(CCc2ccc3c(n2)NCCC3)c1 [Example 150]

IC50 [nM]	Structure (SMILES)
1.2	O=C(NC[C@H](NS(=O)(=O)CCN1C(=O)c2ccccc2C1=O)C(=O)O)c1cnn(CCc2ccc3c(n2)NCCC3)c1 [Example 151]
0.4	CCCCC(CC)COC(=O)N[C@@H](CNC(=O)c1cnn(CCc2ccc3c(n2)NCCC3)c1)C(=O)O (some centres unmarked) [Example 152]
1.6	O=C(N[C@@H](CNC(=O)c1cnn(CCc2ccc3c(n2)NCCC3)c1)C(=O)O)OCC(F)(F)F [Example 153]
16	O=C(NC[C@H](NS(=O)(=O)Cc1cccc(C(F)(F)F)c1)C(=O)O)c1cnn(CCc2ccc3c(n2)NCCC3)c1 [Example 154]
5.5	O=C(NC[C@H](NS(=O)(=O)Cc1ccccc1Cl)C(=O)O)c1cnn(CCc2ccc3c(n2)NCCC3)c1 [Example 155]
21	O=C(NC[C@H](NS(=O)(=O)Cc1cccc(Br)c1)C(=O)O)c1cnn(CCc2ccc3c(n2)NCCC3)c1 [Example 156]
16	O=C(NC[C@H](NS(=O)(=O)Cc1cc(C(F)(F)F)cc(C(F)(F)F)c1)C(=O)O)c1cnn(CCc2ccc3c(n2)NCCC3)c1 [Example 157]
29	Cc1cc(CS(=O)(=O)N[C@@H](CNC(=O)c2cnn(CCc3ccc4c(n3)NCCC4)c2)C(=O)O)no1 [Example 158]
2.7	O=C(NC[C@H](NS(=O)(=O)CC1CC1)C(=O)O)c1cnn(CCc2ccc3c(n2)NCCC3)c1 [Example 159]
0.7	CCCCCCOC(=O)N[C@@H](CNC(=O)c1cnn(CCc2ccc3c(n2)NCCC3)c1)C(=O)O [Example 160]
15	Cc1ccc(CS(=O)(=O)N[C@@H](CNC(=O)c2cnn(CCc3ccc4c(n3)NCCC4)c2)C(=O)O)cc1 [Example 161]
2.2	CC#CCOC(=O)N[C@@H](CNC(=O)c1cnn(CCc2ccc3c(n2)NCCC3)c1)C(=O)O [Example 162]
6.2	O=C(NC[C@H](NS(=O)(=O)Cc1cccc(Cl)c1)C(=O)O)c1cnn(CCc2ccc3c(n2)NCCC3)c1 [Example 163]
6.4	O=C(NC[C@H](NS(=O)(=O)CC1CCCCC1)C(=O)O)c1cnn(CCc2ccc3c(n2)NCCC3)c1 [Example 164]
2.9	O=C(NC[C@H](NS(=O)(=O)Cc1ccc(Cl)cc1Cl)C(=O)O)c1cnn(CCc2ccc3c(n2)NCCC3)c1 [Example 165]
10	O=C(NC[C@H](NS(=O)(=O)Cc1ccccc1F)C(=O)O)c1cnn(CCc2ccc3c(n2)NCCC3)c1 [Example 166]
9.5	O=C(NC[C@H](NS(=O)(=O)Cc1ccncc1)C(=O)O)c1cnn(CCc2ccc3c(n2)NCCC3)c1 [Example 167]
17	O=C(NC[C@H](NS(=O)(=O)Cc1ccc(F)cc1)C(=O)O)c1cnn(CCc2ccc3c(n2)NCCC3)c1 [Example 168]
13	N#Cc1cccc(CS(=O)(=O)N[C@@H](CNC(=O)c2cnn(CCc3ccc4c(n3)NCCC4)c2)C(=O)O)c1 [Example 169]
5.5	O=C(N[C@@H](CNC(=O)c1cnn(CCc2ccc3c(n2)NCCC3)c1)C(=O)O)OCCF [Example 170]
14	Cc1cc(C)c(S(=O)(=O)N[C@@H](CNC(=O)c2cnn(CCCNC3=NCCN3)c2)C(=O)O)c(C)c1 [Example 171]
4.5	Cc1cc(C)c(S(=O)(=O)N[C@@H](CNC(=O)c2cnn(CCCNC3=NCC(O)CN3)c2)C(=O)O)c(C)c1 (some centres unmarked) [Example 172]
2.1	Cc1cc(C)c(S(=O)(=O)N[C@@H](CNC(=O)c2cnn(CCCNC3=NCC(F)CN3)c2)C(=O)O)c(C)c1 (some centres unmarked) [Example 173]
6.2	O=C(N[C@@H](CNCc1cnn(CCc2ccc3c(n2)NCCC3)c1)C(=O)O)OCc1ccccc1 [Example 174, (S)-2-(((Benzyloxy)carbonyl)amino)-3-(((1-(2-(5,6,7,8-tetrahydro-1,8-naphthyridin-2-yl)ethyl)-1H-pyrazol-4-yl)methyl)amino)propanoic acid]
272	O=C(O)CCNCc1cnn(CCc2ccc3c(n2)NCCC3)c1 [Example 175, 3-(((1-(2-(5,6,7,8-Tetrahydro-1,8-naphthyridin-2-yl)ethyl)-1H-pyrazol-4-yl)methyl)amino)propanoic acid]
249	O=C(O)CCN(Cc1cnn(CCc2ccc3c(n2)NCCC3)c1)C(=O)OCc1ccccc1 [Example 176, 3-(((Benzyloxy)carbonyl)((1-(2-(5,6,7,8-tetrahydro-1,8-naphthyridin-2-yl)ethyl)-1H-pyrazol-4-yl)methyl)amino)propanoic acid]

These compounds were tested against human αVβ3 (Homo sapiens, UniProt P05106+P06756) (assay: human αVβ3 HTRF binding assay). Conditions: printed as αVβ4, read-out: Human αVβ4 IC50.
Protocol: as §1, §2

human αVβ3, sequence (P06756 31-992 limits assumed): as the sequence (P06756 31-992 limits assumed) above
human αVβ3, sequence (P05106 27-718 limits assumed): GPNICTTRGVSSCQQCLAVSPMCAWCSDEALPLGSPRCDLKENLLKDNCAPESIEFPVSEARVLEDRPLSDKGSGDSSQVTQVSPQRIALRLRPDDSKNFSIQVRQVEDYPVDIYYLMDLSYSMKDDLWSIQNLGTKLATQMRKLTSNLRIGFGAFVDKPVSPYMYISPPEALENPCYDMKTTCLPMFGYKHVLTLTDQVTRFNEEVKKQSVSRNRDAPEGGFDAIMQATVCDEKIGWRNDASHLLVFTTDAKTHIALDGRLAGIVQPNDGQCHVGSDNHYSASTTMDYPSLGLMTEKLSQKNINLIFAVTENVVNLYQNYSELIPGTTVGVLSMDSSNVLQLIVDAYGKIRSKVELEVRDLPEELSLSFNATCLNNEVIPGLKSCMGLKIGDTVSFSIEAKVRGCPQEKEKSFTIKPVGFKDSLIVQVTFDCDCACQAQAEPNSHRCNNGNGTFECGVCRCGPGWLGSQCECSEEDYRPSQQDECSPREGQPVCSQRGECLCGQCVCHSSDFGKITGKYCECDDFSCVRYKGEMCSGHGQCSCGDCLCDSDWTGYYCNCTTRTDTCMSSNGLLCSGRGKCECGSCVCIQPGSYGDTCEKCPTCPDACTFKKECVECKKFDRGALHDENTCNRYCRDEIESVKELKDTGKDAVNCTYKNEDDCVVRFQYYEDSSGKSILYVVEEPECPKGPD

IC50 [nM]	Structure (SMILES)
4.4	Cc1cc(C)c(S(=O)(=O)N[C@H](CNC(=O)c2cn(CCc3ccc4c(n3)NCCC4)cn2)C(=O)O)c(C)c1 [Example 114]

Same assay, conditions: read-out: Human αVβ3 IC50

IC50 [nM]	Structure (SMILES)
2.1	O=C(N[C@@H](CNC(=O)c1cnn(CCc2ccc3c(n2)NCCC3)c1)C(=O)O)OCc1ccccc1 [Example 12, (S)-2-(((Benzyloxy)carbonyl)amino)-3-(1-(2-(5,6,7,8-tetrahydro-1,8-naphthyridin-2-yl)ethyl)-1H-pyrazole-4-carboxamido)propanoic acid]

Each compound was assayed against human αVβ5 (Homo sapiens, UniProt P06756+P18084) (assay: human αVβ5 HTRF binding assay). Conditions: not given.
Protocol: as §1, with “binding. […]” for “binding.”

human αVβ5, sequence (P06756 31-992 limits assumed): as the sequence (P06756 31-992 limits assumed) above
human αVβ5, sequence (P18084 24-719 limits assumed): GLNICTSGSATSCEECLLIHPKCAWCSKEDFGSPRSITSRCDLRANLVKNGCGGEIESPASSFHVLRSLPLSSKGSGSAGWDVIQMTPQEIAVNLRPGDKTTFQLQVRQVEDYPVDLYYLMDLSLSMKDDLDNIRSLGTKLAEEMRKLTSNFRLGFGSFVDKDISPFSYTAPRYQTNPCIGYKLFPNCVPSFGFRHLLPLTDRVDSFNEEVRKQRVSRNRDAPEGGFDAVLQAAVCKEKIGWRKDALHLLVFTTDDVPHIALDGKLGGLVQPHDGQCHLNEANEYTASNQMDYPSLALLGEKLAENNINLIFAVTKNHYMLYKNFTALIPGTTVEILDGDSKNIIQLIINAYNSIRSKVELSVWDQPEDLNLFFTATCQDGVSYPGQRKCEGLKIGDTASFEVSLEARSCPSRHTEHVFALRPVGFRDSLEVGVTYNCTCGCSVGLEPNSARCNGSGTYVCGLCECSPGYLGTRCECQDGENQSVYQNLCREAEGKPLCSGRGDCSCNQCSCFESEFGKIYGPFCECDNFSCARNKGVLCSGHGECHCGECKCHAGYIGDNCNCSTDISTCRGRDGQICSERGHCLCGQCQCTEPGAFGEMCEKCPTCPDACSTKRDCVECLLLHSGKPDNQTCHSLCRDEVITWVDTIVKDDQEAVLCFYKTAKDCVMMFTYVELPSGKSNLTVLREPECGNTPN

IC50 [nM]	Structure (SMILES)
0.2	O=C(N[C@@H](CNC(=O)c1cnn(CCc2ccc3c(n2)NCCC3)c1)C(=O)O)OCc1ccccc1 [Example 12, (S)-2-(((Benzyloxy)carbonyl)amino)-3-(1-(2-(5,6,7,8-tetrahydro-1,8-naphthyridin-2-yl)ethyl)-1H-pyrazole-4-carboxamido)propanoic acid]
0.5	Cc1cc(C)c(S(=O)(=O)N[C@H](CNC(=O)c2cn(CCc3ccc4c(n3)NCCC4)cn2)C(=O)O)c(C)c1 [Example 114]

These compounds were tested against human αVβ8 (Homo sapiens, UniProt P06756+P26012) (assay: human αVβ8 HTRF binding assay). Conditions: not given.
Protocol: as §1, with “binding. […]” for “binding.”

human αVβ8, sequence (P06756 31-992 limits assumed): as the sequence (P06756 31-992 limits assumed) above
human αVβ8, sequence (P26012 43-684 limits assumed): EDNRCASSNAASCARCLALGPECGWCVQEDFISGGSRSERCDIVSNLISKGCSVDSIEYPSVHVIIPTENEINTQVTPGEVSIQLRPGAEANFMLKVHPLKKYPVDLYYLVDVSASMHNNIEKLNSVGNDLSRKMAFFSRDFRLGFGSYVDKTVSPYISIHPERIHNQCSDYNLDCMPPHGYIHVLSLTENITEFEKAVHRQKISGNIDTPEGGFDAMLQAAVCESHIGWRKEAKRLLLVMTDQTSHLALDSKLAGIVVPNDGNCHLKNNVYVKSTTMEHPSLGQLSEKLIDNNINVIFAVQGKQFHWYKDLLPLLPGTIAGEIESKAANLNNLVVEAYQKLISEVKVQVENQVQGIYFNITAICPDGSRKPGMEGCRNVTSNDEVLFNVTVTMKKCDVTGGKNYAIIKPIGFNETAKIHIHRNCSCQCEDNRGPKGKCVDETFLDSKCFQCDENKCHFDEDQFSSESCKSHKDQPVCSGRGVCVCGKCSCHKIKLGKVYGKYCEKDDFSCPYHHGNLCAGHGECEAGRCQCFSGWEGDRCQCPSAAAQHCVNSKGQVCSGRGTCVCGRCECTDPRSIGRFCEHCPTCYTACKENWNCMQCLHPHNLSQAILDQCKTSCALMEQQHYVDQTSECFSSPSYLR

IC50 [nM]	Structure (SMILES)
49	O=C(N[C@@H](CNC(=O)c1cnn(CCc2ccc3c(n2)NCCC3)c1)C(=O)O)OCc1ccccc1 [Example 12, (S)-2-(((Benzyloxy)carbonyl)amino)-3-(1-(2-(5,6,7,8-tetrahydro-1,8-naphthyridin-2-yl)ethyl)-1H-pyrazole-4-carboxamido)propanoic acid]
156	Cc1cc(C)c(S(=O)(=O)N[C@H](CNC(=O)c2cn(CCc3ccc4c(n3)NCCC4)cn2)C(=O)O)c(C)c1 [Example 114]
